Results taken from patent US11547678B2, “Aqueous pharmaceutical formulation of tapentadol for oral administration” (GRÜNENTHAL GMBH, priority 2011, dated 2023).

Key:
[1] = Antimicrobial robustness testing of 4 mg/mL oral solution, higher sodium benzoate: USP and Pharm. Eur. requirements (Example 4); type: cell-based; conditions: 2.36 mg/mL sodium benzoate (corresponding to 2 mg/mL benzoic acid)
Experimental: Antimicrobial Robustness Testing of 4 mg/mL Tapentadol Oral Solution (Higher Concentration of Sodium Benzoate)
Based on the obtained results the test was repeated using a formulation containing a higher preservative concentration of 2.36 mg/mL instead of 1.77 mg/mL sodium benzoate.
The above study of example 3 was repeated using a formulation of 4 mg/mL tapentadol and 2.36 mg/mL sodium benzoate (corresponding to 2 mg/mL benzoic acid). The antimicrobial activity of the formulation was determined with 100% at target pH of 4 and with 80% of sodium benzoate at the pH limits of 3.5 and 4.5. The following compositions of the formulation were used for the antimicrobial robustness testing (Table 4).

Aspergillus niger = assay: Activity against Aspergillus niger at lower drug concentrations, pH 4.0 and 5.0 (Example 1); type: cell-based
From the text: Determination of Antimicrobial Effective Concentration of Tapentadol Hydrochloride
(§1) The activity against mold (Aspergillus niger) is lower but still within the limits of the requirements of the Pharm. Eur. The activity of tapentadol hydrochloride against Aspergillus niger has been evaluated at lower drug concentrations and at pH 4.0 and 5.0 in formulations containing citric acid as buffer system and hydrochloric acid and sodium hydroxide to adjust the pH.
The requirements of Pharm. Eur. for oral solutions (log reduction of 1 after 14 and no increase after 28 days concerning mold A. niger) are met at pH 4 for tapentadol concentrations of equal or above 8 mg/mL and at pH 5 for concentrations equal or above to 4 mg/m L.

[2] = Initial studies: antimicrobial activity of tapentadol hydrochloride; type: cell-based; conditions: 10 mg/mL free base
From the text: as §1

yeast = assay: Initial studies: activity against yeast; type: cell-based; conditions: 10 mg/mL free base
mold (Aspergillus niger) = assay: Initial studies: activity against mold; type: cell-based; conditions: 10 mg/mL free base
From the text: as §1

[3] = Antimicrobial robustness testing of 4 mg/mL oral solution, lower sodium benzoate: USP and Pharm. Eur. requirements (Example 3); type: cell-based; conditions: 4 mg/mL solution
Experimental: Antimicrobial Robustness Testing of 4 mg/mL Tapentadol Oral Solution (Lower Concentration of Sodium Benzoate)
The 4 mg/mL solution of tapentadol has also been subjected to an antimicrobial robustness testing. […] Therefore, sodium benzoate has been used as a preservative in the formulation. The antimicrobial activity of the formulation was determined with 100% at target pH of 4 and with 80% of sodium benzoate at the pH limits of 3.5 and 4.5. The following compositions of the formulation were used for the antimicrobial robustness testing (Table 3).

[4] = Chemical stability of 4 and 20 mg/mL oral solution (Example 7); type: physicochemical; conditions: 3 months storage
Experimental: Chemical Stability of 4 and 20 mg/mL Tapentadol Oral Solution
To investigate the chemical stability of tapentadol oral solutions in different concentrations (4 and 20 mg/mL), stability studies were performed over 3 months evaluating the following parameters appearance, assay of tapentadol, degradation, assay preservative (only for the 4 mg/mL formulation) and pH at 25° C./60% RH, 40° C./75% RH and 50° C. In addition, for the 4 mg/mL solution 2 weeks cycling studies (from −15° C. to 30° C. as well as from 5° C. to 40° C.) were performed.

SMILES | antimicrobial efficacy for a 4 mg/mL tapentadol hydrochloride oral solution [1] | antimicrobial activity at pH 5 compared with pH 4 (Aspergillus niger; after 14 and 28 days) | concentration limit for antimicrobial effectiveness of tapentadol (Aspergillus niger; depending on the pH (4 to 5)) [mg/mL] | tapentadol concentration at which requirements of Pharm. Eur. for oral solutions concerning mold A. niger are met (Aspergillus niger; pH 5, log reduction of 1 after 14 and no increase after 28 days) [mg/mL] | antimicrobial activity [2] | activity against yeast (yeast) | activity against mold (Aspergillus niger) (mold (Aspergillus niger)) | antimicrobial effect of the drug substance [3] | stability of the API in solution [4]
O=C([O-])c1ccccc1.[Na+] [sodium benzoate] | sufficient |  |  |  |  |  |  |  | 
CC[C@@H](c1cccc(O)c1)[C@@H](C)CN(C)C.Cl [tapentadol hydrochloride, (1R,2R)-3-(3-dimethylamino-1-ethyl-2-methyl-propyl)-phenol hydrochloride] |  | better antimicrobial activity | 4 to 8 | ≥ 4 | high | high | lower but still within the limits of the requirements of the Pharm. Eur. | not sufficiently pronounced | good stability
